Reference: US10632121B2, “Platelet-derived growth factor receptor mutations and compositions and methods relating thereto” (MEMORIAL SLOAN KETTERING CANCER CENTER, priority 2014, dated 2020)
Where “and” joins values, the source holds several entries; their conditions need not be identical. Equal entries are not always repeated. Entries after “also recorded” stand apart in the source; their conditions may differ.

Experiments:
[1] = system: TS543 GBM cells (PDGFRA amplified); assay: Cell proliferation and viability (Vi-Cell, trypan blue), TS543; assay type: cell-based, human; details: for cell death (% Trypan blue positive cells) / proliferation / growth inhibition: TS543, five day treatment
Method: For growth assays performed on non-adherent cell lines (primary human neurosphere lines and S5472 cells) cells were single cell disassociated with Accumax, then counted using the Beckman Coulter Vi-Cell XR Cell Viability Analyzer. Cells were plated in a 6 cm dish in triplicate for each vehicle or drug sample. After five days in culture, each plate was individually spun down, Accumax disassociated, and counted with the Vi-Cell. The Vi-Cell uses trypan blue-exclusion as a measure for viable cells, trypan blue positive cells were used to calculate the percentage of cell death in each sample. The average and standard error of the mean was graphed using GraphPad Prism 6.
(§1) SAR408 and SAR409 were provided by Sanofi. […] Antibodies for western blots were from Cell Signaling Technology with the following exceptions: actin (Sigma), total PDGFRA (Santa Cruz), and V5 epitope (Invitrogen). Western Blots were performed after four hours of drug treatment unless indicated otherwise. Electroluminescence was used to quantify phosphorylation of Akt and S6 ribosomal protein (FIG. 1B) (Meso Scale Discovery cat # K15100D-1 and cat # K150DGD-1). Cell Proliferation and Viability Assays were performed using a Beckman Coulter Vi-Cell XR Cell Viability Analyzer after five days of drug treatment unless indicated otherwise.

[2] = system: TS543 GBM cells; assay: Western blot of pathway signaling, TS543; assay type: cell-based, human; details: for PI3K/mTOR pathway inhibition (Western blot): TS543, four hour treatment
Method: (§2) Cell lysates for western blots were harvested in cell lysis buffer (Cell Signaling 9803) supplemented with a protease inhibitor cocktail (Calbiochem cocktail II 524625) and phosphatase inhibitor cocktail (Calbiochem cocktail III 524627). Lysates were sonicated, centrifuged, then quantified (Bio-Rad DC Protein Assay 500-0113, 500-0114, and 500-0115). Samples were normalized to one another, then a reducing loading buffer was added. Samples were run on SDS-PAGE gels and semi-dry transferred to nitrocellulose membranes.
as §1

[3] = target: mTOR (Homo sapiens, UniProt P42345); details: cited from earlier work
[4] = system: H1703 human non-small cell lung cancer cells (PDGFRA amplified); assay: Cell proliferation and viability (Vi-Cell, trypan blue), H1703; assay type: cell-based; details: H1703, five day treatment
Method: Growth assays performed on adherent cell lines were trypsanized, counted, and plated into 6 cm dishes. The next day media was removed, and replaced with reduced serum media (5% FBS) with drug or vehicle in triplicate for each concentration. After five days in culture, cells were analyzed in the same manner as non-adherent lines.
as §1

[5] = system: S5472 GBM cells (PDGFB driven); assay: Cell proliferation and viability (Vi-Cell, trypan blue), S5472; assay type: cell-based, mouse; details: for cell death (% Trypan blue positive cells) / proliferation / growth inhibition: S5472, five day treatment
[6] = system: H1703 cells; assay: Western blot of pathway signaling, H1703; assay type: cell-based, human
Method: as §2, §1

[7] = system: PI3K/mTOR pathway; assay: Clinical trial: IHC of PI3K/mTOR pathway markers in GBM tumor tissue; assay type: in vivo, human; details: patients treated 10-28 days before surgery
Method: To evaluate pharmacodynamic effects in tumor tissue, immuno-histochemistry (IHC) was performed with phosphorylation-site specific antibodies against four PI3K/mTOR pathway components: Proline-Rich Akt Substrate of 40-kDa (PRAS40, threonine246), ribosomal protein S6 kinase 1 (S6K1, threonine 389), eukaryotic translation initiation factor 4E-binding protein 1 (4E-BP1, threonine 37/46), and S6 Ribosomal Protein (S6RP, serine 235/236) (FIG. 1D). For each marker staining of several thousand tumor cells was quantified and the staining intensity in the “on-treatment”-biopsy (Surgery 2) was compared with the staining intensity in the tumor sample collected from the same patient at diagnosis (Surgery 1). This “matched-pair” analysis included 19/21 evaluable patients (Table 3) who received at least one dose of study drug, had detectable phospho-S6RP in the pre-treatment sample (Surgery 1), and had tissue of sufficient quality collected on treatment (Surgery 2).
The design of the trial allowed comparison of the initial glioma (Surgery 1) in these patients to the recurrent glioma which was treated with drug before surgical resection (Surgery 2). Immunohistochemical staining (IHC) was performed on the samples and pathway inhibition was measured via pS6 Ser235/6, pS6K1 Thr389, p4E-BP1 Thr37/46, and pPRAS40 Thr246 (FIG. 1E, upper panel). Cellular proliferation was measured via Ki-67 IHC. […]
Immunohistochemical (IHC) staining of patient samples was performed on formalin-fixed paraffin-embedded (FFPE) tumor tissues collected at the initial surgery and recurrent tumor surgery. […] Immunoreactivity was detected using NovaRED Peroxidase Substrate kit (Vector Labs SK-4800) and sections were counterstained with hematoxylin.
To analyze pathway inhibition, three representative tumor images from each slide stained with phospho-proteins were taken, after determining the presence of tumor cells based on hematoxylin staining evaluation. […] The tumor to normal ratio was calculated by dividing the average of the tumor images by the average of the normal tissue image. […]

[8] = system: glioblastoma tumor cells; assay: Clinical trial: Ki-67 IHC tumor cell proliferation; assay type: in vivo, human
Method: The design of the trial allowed comparison of the initial glioma (Surgery 1) in these patients to the recurrent glioma which was treated with drug before surgical resection (Surgery 2). Immunohistochemical staining (IHC) was performed on the samples and pathway inhibition was measured via pS6 Ser235/6, pS6K1 Thr389, p4E-BP1 Thr37/46, and pPRAS40 Thr246 (FIG. 1E, upper panel). Cellular proliferation was measured via Ki-67 IHC. These IHC measurements were compared to one another and reported as a percentage decrease or increase of Surgery2/Surgery 1. Samples which had reduction of all four phospho-protein measurements in Surgery 2 also had the greatest relative decreases in cellular proliferation (FIG. 1E, lower panel). Samples which had no inhibition of any pharmacodynamic biomarker or inhibition of only one pharmacodynamic biomarker were most likely to see a relative increase in proliferation.
To compare the relative change in cellular proliferation in the three drug arms and a drug naïve population, a control population was formed of patients who had not been treated with any PI3K inhibitor and surgical samples available from two surgical resections and compared their relative proliferation via Ki-67 IHC (FIG. 12A). This control group was compared with the three arms of the trial. […] There was no statistically significant change in proliferation between the control group and the other arms of the trial.
To determine the Ki-67 labeling index, slides were analyzed as with the phospho-proteins, and the number of positively stained and total number of cells was determined for each image. The percentage of Ki-67 positive cells was calculated for each image, then the three images were averaged.

[9] = system: recurrent glioblastoma; assay: Clinical trial: time to progression and tumor response; assay type: in vivo, human
[10] = Clinical trial: primary reason for discontinuation from study treatment; assay type: in vivo, human; details: SAR408 200 mg once daily (N = 6)
From the text: All 21 patients discontinued treatment prior to receiving 1 year of postsurgery treatment. Time to tumor progression (TTP) for all patients is presented FIG. 2A.

[11] = target: PI3Kα (Homo sapiens, UniProt P42336); details: cited from earlier work
[12] = target: PI3Kβ (Homo sapiens, UniProt P42338); details: cited from earlier work
[13] = target: PI3Kδ (Homo sapiens, UniProt O00329); details: cited from earlier work
[14] = target: PI3Kγ (Homo sapiens, UniProt P48736); details: cited from earlier work
[15] = system: panel of 130 other kinases; details: Cloughesy et al., 2013; cited from earlier work
[16] = Clinical trial: safety, adverse events (CTCAE v4.0)
[17] = SAR408 200 mg once daily (N = 6)

PI3Kα, sequence (P42336 whole entry): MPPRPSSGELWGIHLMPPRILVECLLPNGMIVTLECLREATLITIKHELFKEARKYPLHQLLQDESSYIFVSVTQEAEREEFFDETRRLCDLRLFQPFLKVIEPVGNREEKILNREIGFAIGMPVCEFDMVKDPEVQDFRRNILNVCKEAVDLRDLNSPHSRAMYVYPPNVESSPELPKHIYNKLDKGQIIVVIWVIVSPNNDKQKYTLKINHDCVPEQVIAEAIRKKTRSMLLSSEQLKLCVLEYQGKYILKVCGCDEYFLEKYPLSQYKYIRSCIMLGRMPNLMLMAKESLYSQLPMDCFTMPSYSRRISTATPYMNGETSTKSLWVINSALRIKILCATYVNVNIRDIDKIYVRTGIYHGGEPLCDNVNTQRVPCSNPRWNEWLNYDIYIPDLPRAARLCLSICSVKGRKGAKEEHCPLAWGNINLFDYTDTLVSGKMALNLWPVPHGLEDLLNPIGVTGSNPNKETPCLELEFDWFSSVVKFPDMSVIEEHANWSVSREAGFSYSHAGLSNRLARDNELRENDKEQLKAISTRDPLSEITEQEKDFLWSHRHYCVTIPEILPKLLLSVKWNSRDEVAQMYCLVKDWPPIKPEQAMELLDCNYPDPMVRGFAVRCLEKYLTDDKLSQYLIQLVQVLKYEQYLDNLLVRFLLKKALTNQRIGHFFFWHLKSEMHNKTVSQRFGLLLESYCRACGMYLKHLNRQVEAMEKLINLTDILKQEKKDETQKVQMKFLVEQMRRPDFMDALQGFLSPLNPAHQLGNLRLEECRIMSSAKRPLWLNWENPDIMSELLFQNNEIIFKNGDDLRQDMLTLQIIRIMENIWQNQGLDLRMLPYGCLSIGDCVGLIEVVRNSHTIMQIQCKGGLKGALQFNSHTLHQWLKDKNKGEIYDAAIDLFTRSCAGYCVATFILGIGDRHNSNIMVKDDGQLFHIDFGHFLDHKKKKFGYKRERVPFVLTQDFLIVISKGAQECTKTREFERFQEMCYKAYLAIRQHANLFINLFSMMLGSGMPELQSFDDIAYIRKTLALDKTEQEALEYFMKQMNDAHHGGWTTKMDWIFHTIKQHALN
PI3Kα, sequence (P27986 whole entry partner): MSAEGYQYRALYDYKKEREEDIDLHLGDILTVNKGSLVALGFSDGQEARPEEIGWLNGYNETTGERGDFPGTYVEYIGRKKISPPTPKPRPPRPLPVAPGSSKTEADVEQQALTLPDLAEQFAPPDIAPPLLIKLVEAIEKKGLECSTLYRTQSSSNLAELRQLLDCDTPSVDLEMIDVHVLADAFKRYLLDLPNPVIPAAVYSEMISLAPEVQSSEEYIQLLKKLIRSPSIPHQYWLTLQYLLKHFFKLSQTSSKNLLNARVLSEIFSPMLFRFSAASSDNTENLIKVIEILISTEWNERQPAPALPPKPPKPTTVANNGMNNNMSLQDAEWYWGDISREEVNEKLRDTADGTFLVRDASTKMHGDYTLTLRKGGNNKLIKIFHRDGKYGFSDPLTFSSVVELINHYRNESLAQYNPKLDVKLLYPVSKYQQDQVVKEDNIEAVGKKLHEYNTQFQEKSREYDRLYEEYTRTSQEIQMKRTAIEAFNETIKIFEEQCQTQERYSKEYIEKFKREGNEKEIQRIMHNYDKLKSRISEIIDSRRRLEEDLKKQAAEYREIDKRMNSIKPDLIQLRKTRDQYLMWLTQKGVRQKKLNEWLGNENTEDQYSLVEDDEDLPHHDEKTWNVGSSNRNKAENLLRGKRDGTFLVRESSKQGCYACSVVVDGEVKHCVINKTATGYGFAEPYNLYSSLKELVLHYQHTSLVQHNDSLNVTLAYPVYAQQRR
PI3Kγ, sequence (P48736 whole entry): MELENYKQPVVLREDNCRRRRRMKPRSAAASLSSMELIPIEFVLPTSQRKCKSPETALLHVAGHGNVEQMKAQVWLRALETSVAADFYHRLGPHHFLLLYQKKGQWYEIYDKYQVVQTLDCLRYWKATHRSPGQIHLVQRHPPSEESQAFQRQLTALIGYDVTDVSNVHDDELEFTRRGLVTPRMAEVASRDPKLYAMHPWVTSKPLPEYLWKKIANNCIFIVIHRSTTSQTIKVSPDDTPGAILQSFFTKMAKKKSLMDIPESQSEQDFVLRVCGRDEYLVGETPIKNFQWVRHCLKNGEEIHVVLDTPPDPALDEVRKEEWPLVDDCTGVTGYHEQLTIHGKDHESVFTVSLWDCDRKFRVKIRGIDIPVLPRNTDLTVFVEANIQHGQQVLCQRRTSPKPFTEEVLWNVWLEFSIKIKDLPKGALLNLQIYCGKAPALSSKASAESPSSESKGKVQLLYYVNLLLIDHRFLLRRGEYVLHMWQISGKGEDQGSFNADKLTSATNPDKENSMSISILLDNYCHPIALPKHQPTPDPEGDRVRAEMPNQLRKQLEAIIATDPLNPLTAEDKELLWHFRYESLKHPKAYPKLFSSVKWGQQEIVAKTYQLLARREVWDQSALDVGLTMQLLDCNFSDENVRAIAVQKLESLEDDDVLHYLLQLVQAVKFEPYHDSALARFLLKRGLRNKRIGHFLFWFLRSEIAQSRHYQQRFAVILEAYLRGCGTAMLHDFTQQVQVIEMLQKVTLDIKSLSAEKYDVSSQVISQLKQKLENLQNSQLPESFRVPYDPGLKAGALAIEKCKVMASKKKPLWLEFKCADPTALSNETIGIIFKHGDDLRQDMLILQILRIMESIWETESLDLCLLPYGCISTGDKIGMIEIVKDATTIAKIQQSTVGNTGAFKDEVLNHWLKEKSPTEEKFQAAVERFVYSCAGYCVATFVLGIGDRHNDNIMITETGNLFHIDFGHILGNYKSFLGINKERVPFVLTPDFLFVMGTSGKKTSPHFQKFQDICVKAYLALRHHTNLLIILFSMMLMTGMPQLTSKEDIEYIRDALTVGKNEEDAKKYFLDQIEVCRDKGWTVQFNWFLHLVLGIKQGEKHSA
PI3Kδ, sequence (O00329 whole entry): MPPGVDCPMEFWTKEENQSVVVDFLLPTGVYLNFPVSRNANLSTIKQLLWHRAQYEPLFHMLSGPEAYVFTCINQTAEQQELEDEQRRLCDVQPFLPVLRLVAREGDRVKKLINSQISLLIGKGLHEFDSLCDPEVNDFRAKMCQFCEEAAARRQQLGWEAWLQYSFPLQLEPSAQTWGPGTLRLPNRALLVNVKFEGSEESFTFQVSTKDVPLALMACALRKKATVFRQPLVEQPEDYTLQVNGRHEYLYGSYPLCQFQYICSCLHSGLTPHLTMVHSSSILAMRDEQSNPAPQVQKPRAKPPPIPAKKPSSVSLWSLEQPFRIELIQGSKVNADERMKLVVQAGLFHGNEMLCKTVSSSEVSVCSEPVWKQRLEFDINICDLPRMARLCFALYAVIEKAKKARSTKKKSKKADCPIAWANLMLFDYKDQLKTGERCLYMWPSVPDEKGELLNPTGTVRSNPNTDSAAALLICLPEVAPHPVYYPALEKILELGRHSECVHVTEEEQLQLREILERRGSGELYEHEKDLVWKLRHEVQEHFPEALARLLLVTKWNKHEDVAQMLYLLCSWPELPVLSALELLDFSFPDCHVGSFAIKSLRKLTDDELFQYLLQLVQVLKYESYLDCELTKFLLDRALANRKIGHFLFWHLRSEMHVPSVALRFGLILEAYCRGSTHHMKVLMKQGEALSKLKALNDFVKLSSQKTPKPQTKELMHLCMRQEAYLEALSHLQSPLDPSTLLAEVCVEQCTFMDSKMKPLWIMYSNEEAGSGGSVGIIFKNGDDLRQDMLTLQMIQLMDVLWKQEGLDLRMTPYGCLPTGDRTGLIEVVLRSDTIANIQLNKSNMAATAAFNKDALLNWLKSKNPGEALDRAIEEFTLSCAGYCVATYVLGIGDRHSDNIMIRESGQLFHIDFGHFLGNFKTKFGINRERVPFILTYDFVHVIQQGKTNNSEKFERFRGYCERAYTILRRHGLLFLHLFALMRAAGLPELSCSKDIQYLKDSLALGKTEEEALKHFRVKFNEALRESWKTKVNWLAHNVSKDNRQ
PI3Kδ, sequence (P27986 whole entry partner): as the sequence (P27986 whole entry partner) above
PI3Kβ, sequence (P42338 whole entry): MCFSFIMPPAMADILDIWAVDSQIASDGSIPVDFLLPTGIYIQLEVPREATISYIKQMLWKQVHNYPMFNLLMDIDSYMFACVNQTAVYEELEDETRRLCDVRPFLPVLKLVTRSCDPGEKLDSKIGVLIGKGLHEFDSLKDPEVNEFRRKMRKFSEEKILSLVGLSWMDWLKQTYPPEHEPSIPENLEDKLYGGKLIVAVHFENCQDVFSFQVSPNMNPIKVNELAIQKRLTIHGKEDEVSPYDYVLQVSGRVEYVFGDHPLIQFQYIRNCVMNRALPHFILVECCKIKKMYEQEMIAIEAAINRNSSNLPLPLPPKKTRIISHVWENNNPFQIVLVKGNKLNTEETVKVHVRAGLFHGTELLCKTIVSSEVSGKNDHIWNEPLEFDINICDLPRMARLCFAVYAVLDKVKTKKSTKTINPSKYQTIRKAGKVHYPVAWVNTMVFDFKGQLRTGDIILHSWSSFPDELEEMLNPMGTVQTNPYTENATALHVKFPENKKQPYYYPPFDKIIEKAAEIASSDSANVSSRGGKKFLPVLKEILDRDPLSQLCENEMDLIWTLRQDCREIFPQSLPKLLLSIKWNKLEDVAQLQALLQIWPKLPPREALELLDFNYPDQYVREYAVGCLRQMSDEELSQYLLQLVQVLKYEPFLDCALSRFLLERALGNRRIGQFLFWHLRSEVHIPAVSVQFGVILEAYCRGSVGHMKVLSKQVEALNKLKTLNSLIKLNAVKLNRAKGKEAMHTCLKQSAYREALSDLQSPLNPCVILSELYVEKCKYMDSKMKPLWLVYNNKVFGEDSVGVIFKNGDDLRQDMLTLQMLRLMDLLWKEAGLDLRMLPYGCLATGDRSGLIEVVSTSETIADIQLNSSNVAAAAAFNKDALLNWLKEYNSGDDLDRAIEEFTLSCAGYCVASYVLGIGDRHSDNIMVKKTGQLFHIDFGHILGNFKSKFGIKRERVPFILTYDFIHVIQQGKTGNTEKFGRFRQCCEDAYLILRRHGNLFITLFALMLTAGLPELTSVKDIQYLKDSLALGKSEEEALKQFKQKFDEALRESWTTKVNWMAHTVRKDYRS
PI3Kβ, sequence (P27986 whole entry partner): as the sequence (P27986 whole entry partner) above

Question: What does the source list for `Cc1nc(NC(=O)N2CCC[C@H]2C(N)=O)sc1-c1ccnc(C(C)(C)C(F)(F)F)c1` [BYL719]?
Answer: cell death (% Trypan blue positive cells) [1]: induction of cell death was observed; PI3K/mTOR pathway inhibition (Western blot) [2]: inhibited; IC50 [3]: > 9.1 µM

Question: Which “cell death (% Trypan blue positive cells)” value [1] does the source give for `CS(=O)(=O)N1CCN(Cc2cc3nc(-c4cccc5[nH]ncc45)nc(N4CCOCC4)c3s2)CC1` [GDC-0941] here?
Answer: induction of cell death was observed

Question: And the “PI3K/mTOR pathway inhibition (Western blot)” value [2]?
Answer: inhibited

Question: For `Cc1c(CN2CCN(C(=O)[C@H](C)O)CC2)sc2c(N3CCOCC3)nc(-c3cnc(N)nc3)nc12` [GDC-0980], which “cell death (% Trypan blue positive cells)” value [1] is on record?
Answer: induced dose dependent cell death; also recorded: induction of cell death

Question: What about the “proliferation / growth inhibition” value [1] of the same compound?
Answer: inhibition of proliferation

Question: And the “cell death (% Trypan blue positive cells)” value [4]?
Answer: induced dose dependent cell death; also recorded: induction of cell death

Question: What about the “proliferation / growth inhibition” value [4] of the same compound?
Answer: inhibition of proliferation

Question: What about the “cell death (% Trypan blue positive cells)” value [5] of the same compound?
Answer: induction of cell death; also recorded: induced cell death

Question: What about the “proliferation / growth inhibition” value [5] of the same compound?
Answer: inhibition of proliferation

Question: For `COc1ccc(-c2ccc3c(N4CCOCC4)nc(N4C[C@@H](C)O[C@@H](C)C4)nc3n2)cc1CO` [KU-0063794], which “cell death (% Trypan blue positive cells)” value [1] is on record?
Answer: no induction of cell death; also recorded: not sufficient to induce cell death

Question: And the “proliferation / growth inhibition” value [1]?
Answer: proliferation arrest; also recorded: markedly impaired tumor cell proliferation

Question: What about the “cell death (% Trypan blue positive cells)” value [4] of the same compound?
Answer: no induction of cell death

Question: And the “proliferation / growth inhibition” value [4]?
Answer: proliferation arrest

Question: And the “cell death (% Trypan blue positive cells)” value [5]?
Answer: no induction of cell death; also recorded: not sufficient to induce cell death

Question: What about the “proliferation / growth inhibition” value [5] of the same compound?
Answer: proliferation arrest; also recorded: markedly impaired tumor cell proliferation

Question: And the “TORC1 signaling (pS6 Ser235/6 and Ser240/4)” value ([6]; H1703, four hours)?
Answer: inhibited

Question: And the “TORC2 functions (pAkt Ser473)” value ([6]; H1703, four hours)?
Answer: inhibited

Question: Which results are given for `NC1(c2ccc(-c3nc4ccn5c(=O)[nH]nc5c4cc3-c3ccccc3)cc2)CCC1` [MK-2206]?
Answer: cell death induction, combination of Akt and mTOR inhibition ([1]; TS543, MK-2206 combined with 10 nM rapamycin, five days): marked increase in cell death induction; cell death (% Trypan blue positive cells) [1]: dose-dependent cell death; cell death (% Trypan blue positive cells) [5]: dose-dependent cell death; cell death induction in cells expressing drug-resistant AKT1 allele (W80-AKT1) ([5]; S5472 expressing AKT1 mutated at tryptophan 80): completely protected

Question: What does the source list for `COc1ccc(Cl)c(Nc2nc3ccccc3nc2NS(=O)(=O)c2cccc(NC(=O)C(C)(C)N)c2)c1` [SAR408, pilaralisib]?
Answer: PI3K/mTOR pathway inhibition in tumor, Surgery 2 vs Surgery 1 [7]: Inhibition of the PI3K/mTOR Pathway; change in proliferation (Ki-67) compared to untreated control population ([8]; 200 mg/QD SAR245408 arm): not significantly different; cellular proliferation in tumor, Surgery 2 vs Surgery 1 ([8]; patients treated 10-28 days before surgery): Reduced Cellular Proliferation; TTP (time to progression), individual patients ([9]; SAR408 200 mg/QD): 6.14 wks (2×) and 18.29 wks and 10.14 wks and 6 wks and 4.57 wks; median time to progression ([9]; SAR245408 arm): 6.14 weeks; range of time to progression ([9]; SAR245408 arm): 4.57-18.29 weeks; Discontinuation: Adverse Event or SAE unrelated to disease progression [10]: 0 n (%); Discontinuation: Clinical disease progression per principal investigator [10]: 0 n (%); Discontinuation: Disease progression per modified RANO [10]: 6 (100.0) n (%); IC50 [11]: 0.048 µM; IC50 [12]: 0.617 µM; IC50 [13]: 0.01 µM; IC50 [14]: 0.26 µM; IC50 [3]: > 15 µM; inhibition of a panel of 130 other kinases [15]: do not significantly inhibit; Patients with any Grade 3/4 TEAE [16, 17]: 2 n (%) and 2 (33.3) n (%); Patients with any Grade 3/4 treatment-emergent SAE [16, 17]: 1 (16.7) n (%); Patients with any TEAE [16, 17]: 6 (100.0) n (%); Patients with any TEAE leading to death [16, 17]: 0 n (%); Patients with any TEAE leading to dose reduction or interruption [16, 17]: 0 n (%); Patients with any TEAE leading to permanent treatment discontinuation [16, 17]: 0 n (%); Patients with any related Grade 3/4 TEAE [16, 17]: 0 n (%); Patients with any related Grade 3/4 treatment-emergent SAE [16, 17]: 0 n (%); Patients with any related TEAE [16, 17]: 3 n (%) and 3 (50.0) n (%); Patients with any related treatment-emergent SAE [16, 17]: 0 n (%); Patients with any treatment emergent SAE [16, 17]: 1 n (%) and 1 (16.7) n (%); TEAEs of ALT increased, AST increased, blood bilirubin increased or gamma-glutamyltransferase increased ([16]; SAR408 once daily cohort): No TEAEs; drug-related TEAE: fatigue ([16]; all cohorts of the drug pooled): 2 patients; tolerability of postoperative treatment ([16]; seventeen patients who resumed drug postoperatively): tolerated it well

Question: What does the source list for `Cc1ccc(NC(=O)c2ccc(CN3CCN(C)CC3)cc2)cc1Nc1nccc(-c2cccnc2)n1` [imatinib]?
Answer: cell death (% Trypan blue positive cells) [1]: robust induction of cell death; cell death (% Trypan blue positive cells) [5]: will die; PDGFRA and downstream signaling (Western blot) ([2]; TS543): inhibits PDGFRA and downstream signaling; PDGFRA and downstream signaling (Western blot) ([6]; H1703, 4 hours): robust inhibition of PGDFRA and downstream signaling
